In patent US20170100493A1, “RECEPTOR IMAGING SYSTEMS AND RELATED METHODS” (The General Hospital Corporation, priority 2015, published 2017):
Read-outs that look alike come from different tables or passages of the source.

What was measured:
D2/D3 receptors [1] = target: T1, D2/D3 receptors (Macaca mulatta, UniProt F7CYH8); settings: for Peak CBV: putamen ROI, animal M1
Method: (§1) Two animals (male rhesus macaques: M1 (8 years) and M2 (6 years)) underwent PET/MR imaging. For each study, the animal was anesthetized, initially with 10 mg/kg ketamine and 0.5 mg/kg xylazene, and maintained with isoflurane (1%, mixed with oxygen) after intubation.
(§2) [^11C]Raclopride was injected using a bolus+infusion protocol. […] Boluses were administered by hand over a duration of 30 seconds, after which infusion at a rate of 0.01 ml/s was started with an automatic pump (Medrad Spectra Solaris). Specific activities at time of injection were 3.7±2.8 mCi/nmol. […] Experiments and repeated administration of pharmacological challenges in all NHPs were separated by at least 2 weeks, so that results were not influenced from prior history. […] Additionally, the D2 antagonist prochlorperazine was injected at doses 0.1 and 0.2 mg/kg in animal M2 to serve as a direct comparison to the agonists, and to investigate whether the temporal relationship between occupancy and function that was reported for the short-acting antagonist raclopride (10) was maintained for an antagonist with much longer duration of action.
(§3) Simultaneous PET and MR data were acquired on a prototype scanner that includes a BrainPET insert and a Tim Trio 3T MR scanner (Siemens AG, Healthcare Sector, Erlangen Germany). A custom-built tight-fitting PET compatible 8-channel NHP receive array (34) together with a vendor-supplied local circularly polarized transmit coil was used for MR imaging.
The phased array enabled 2-fold acceleration with GRAPPA (35) in the anterior-posterior direction. […] To improve fMRI detection power, ferumoxytol (Feraheme, AMAG Pharmaceuticals, Cambridge Mass.) was injected at 10 mg/kg prior to fMRI (36).
(§4) PET and MR data were registered to the Saleem-Logothetis stereotaxic space (38) with an affine transformation (12 degrees of freedom) using a multi-subject MRI template (39), in which standard regions of interest (ROI) were defined based on anatomy. Alignment of the EPI data used an affine transformation plus local distortion fields. After motion-correcting using AFNI software (40), and after spatially smoothing fMRI data with a 2.5 mm Gaussian kernel, statistical analysis was carried out using the general linear model (GLM). The temporal response to the drug injection was modeled with a gamma-variate function, in which the time-to-peak was adjusted to minimize the χ^2/DOF of the GLM fit to the data. […] Additionally, regressors that correspond to translations in three dimensions and were derived from motion correction were used in the GLM analysis. The resulting signal changes were then converted to percentage changes in CBV by standard methods (41).

D2/D3 receptors [2] = target: T1, D2/D3 receptors; settings: for DBPND^peak / Peak Occ. θ^peak / BP^(0): putamen ROI, animal M1; for BP^(0): baseline [11C]raclopride binding potential
Method: as §1, §2, §3
PET emission data were acquired in list-mode format for 100 min starting with radiotracer injection. Images were reconstructed with a 3D Poisson ordered-subset expectation maximization algorithm using prompt and variance-reduced random coincidence events. Normalization, scatter and attenuation sinograms (including attenuation of the radiofrequency coil) were included in the reconstruction (37). […] Framing intervals were 10×30 sec, followed by 1 min frames.
as §4
PET kinetic modeling employed a general linear model formulation of the simplified reference tissue model (SRTM) (14), with cerebellum as the reference ROI, and the rate constant (k2) for cerebellum derived from the high-binding region putamen using a 2-parameter SRTM model (42).

D2 = settings: cited from earlier work
D3 = settings: cited from earlier work
D2/D3 = settings: reported (ref 19); cited from earlier work
D2/D3 receptors [3] = target: T1, D2/D3 receptors; settings: mean±std over doses; model fit to experimental data
Method: The process of receptor desensitization and internalization can be considered in a dynamic occupancy model. In an example of a dynamic occupancy model, the following are assumed: • i. The externalization constant kext is very long, and is thus negligible for timescales <2 h. • ii. Once internalized, receptors can be bound with an affinity α by the PET radiotracer. […] The rate to convert desensitized to internalized receptors is negligible with respect to the relevant experimental timescales.
The concentrations of the free ligand and free DA can both be normalized to the baseline DA occupancy at time zero, such that f describes the fraction of free concentration (relative to baseline DA). The parameter θint describes the fraction of internalized receptors and kDI denotes the desensitization and internalization rate constant. The above equations, plus the measurement models for PET and fMRI are a full description of the RDI model employed in this study for simulation and parameter estimation.
The RDI model was used to generate a family of CBV curves for RDI rates in the range of 1 min to 30 min. An estimate of the RDI constant for each dataset was then achieved by minimizing the residual norm between the model and data after drug injection.

T1 sequence (F7CYH8 1-443): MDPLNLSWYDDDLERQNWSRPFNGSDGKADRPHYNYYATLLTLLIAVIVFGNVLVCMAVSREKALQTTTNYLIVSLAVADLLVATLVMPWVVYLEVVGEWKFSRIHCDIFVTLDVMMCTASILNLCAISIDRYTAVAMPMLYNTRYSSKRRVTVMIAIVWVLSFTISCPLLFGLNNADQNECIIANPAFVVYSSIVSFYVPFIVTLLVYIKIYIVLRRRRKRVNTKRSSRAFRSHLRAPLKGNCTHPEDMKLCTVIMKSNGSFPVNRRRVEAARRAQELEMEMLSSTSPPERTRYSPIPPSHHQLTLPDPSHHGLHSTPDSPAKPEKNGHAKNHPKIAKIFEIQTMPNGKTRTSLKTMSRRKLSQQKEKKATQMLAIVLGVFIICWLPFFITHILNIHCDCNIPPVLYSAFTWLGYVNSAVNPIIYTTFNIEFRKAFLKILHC

With `CN1CCN(CCCN2c3ccccc3Sc3ccc(Cl)cc32)CC1` [prochlorperazine] the “CBV and occupancy timecourses compared” value (D2/D3 receptors [1]; animal M2, FIG. 4 graph (c)) was “CBV and occupancy timecourses were matched”, the “CBV response peak magnitude” value (D2/D3 receptors [1]; at 88% occupancy, animal M2) was 14.4% and the “occupancy at CBV peak magnitude” value (D2/D3 receptors [2]; animal M2) was 88%.
For `CCCN(CCC)CCc1cccc2c1CC(=O)N2` [ropinirole], the “CBV timecourse peak time after the injection” value (D2/D3 receptors [1]; 0.1 mg/kg, animal M2) was 4.0 min, the “duration of CBV response in caudate” value (D2/D3 receptors [1]; 0.1 mg/kg, animal M2) was 28.5 min and the “CBV timecourse peak time after the injection” value (D2/D3 receptors [1]; 0.3 mg/kg, animal M2) was 3.4 min. The “duration of CBV response in caudate” value (D2/D3 receptors [1]; 0.3 mg/kg, animal M2) was 25.0 min, the “CBV^peak signal” value (D2/D3 receptors [1]; animal M2, FIG. 4 comparison of agonists) was −8.5% and the “Peak CBV” value (D2/D3 receptors [1]; 0.1 mg/kg) was −6.6%. The “Peak CBV” value (D2/D3 receptors [1]; 0.3 mg/kg) was −9.7%, the Kd (D2) was 970 nM and the Kd (D3) was 61 nM. The “time at which PET occupancy peaked” value (D2/D3 receptors [2]; animal M2, FIG. 4) was 17.8 min, the “DBPND^peak” value (D2/D3 receptors [2]; 0.1 mg/kg) was 4.7 and the “Peak Occ. θ^peak” value (D2/D3 receptors [2]; 0.1 mg/kg) was 7%. For the same molecule, the “DBPND^peak” value (D2/D3 receptors [2]; 0.3 mg/kg) was 2.9, the “Peak Occ. θ^peak” value (D2/D3 receptors [2]; 0.3 mg/kg) was 49% and the “BP^(0)” value (D2/D3 receptors [2]; 0.1 mg/kg session) was 5.1. For the same molecule, the “BP^(0)” value (D2/D3 receptors [2]; 0.3 mg/kg session) was 5.7, the “potency compared to quinpirole” value (D2/D3) was “about seven times less potent” and the “1/kDI, in vivo desensitization and internalization time constant” value (D2/D3 receptors [3]) was 8.5 ± 2.1 min.
